Measured values: US20240101584A1, “TARGETED DELIVERY OF 1,2,4,5 TETRAOXANE COMPOUNDS AND THEIR USES” (Westlake University, priority 2021, published 2024)

Key:
NIH3T3 = test: CellTiter-Glo viability, NIH3T3 cells (Table 14); assay type: cell-based; conditions: Mus musculus, 48 hrs, n = 3
[1] = test system: HEYA8 CSC xenograft tumors; test: Mouse xenograft ovarian tumors (HEYA8 CSC); assay type: in vivo; conditions: for tolerability of regimens in tested animals / abnormal behavior or weight loss during treatment period: HEYA8 CSC xenograft mice; for abnormal behavior or weight loss during treatment period: entire treatment period
Experimental: FIG. 7A is a graph showing the tumor volume of xenograft tumors versus time after s.c. injection of DMSO, PTX, compound 37b, or compound 48. Nude mice were injected s.c. with HEYA8 CSC cells (10^6) and randomly allocated to one of the six treatment groups (n=4): (i) DMSO, (ii) Paclitaxel (PTX), 5 mg/kg, (iii) compound 37b, 5 mg/kg, (iv) compound 37b, 10 mg/kg, (v) compound 48, 5 mg/kg, or (vi) compound 48, 10 mg/kg. When control animals (DMSO) began to appear tumor ulceration (25 days), all animals in the experiment were sacrificed and photographed. FIG. 7B are photographs of the tumor from sacrificed animals of different treatment groups after 25 days. FIG. 7C is a graph showing the tumor weight of xenograft tumors versus time after s.c. injection of DMSO, PTX, compound 37b, or compound 48. Data are shown as mean±SEM. * P≤0.05 versus DMSO group.
The cytotoxicity of 1,2,4,5-tetraoxanes 48 and 37b on cancer stem cell (CSC) model of HEY A8 CSCs and mouse xenograft ovarian tumors (FIG. 2) was examined. Nude mice were injected s.c. with HEYA8 CSC cells […] and randomly allocated to one of the six treatment groups (n=4): (i) DMSO, (ii) Paclitaxel (PTX), 5 mg/kg, (iii) compound 37b, 5 mg/kg, (iv) compound 37b, 10 mg/kg, (v) compound 48, 5 mg/kg, and (vi) compound 48, 10 mg/kg. When control animals (DMSO) began to appear tumor ulceration (25 days), all animals in the experiment were sacrificed and photographed. It is known that ovarian CSCs have resistance to Taxol, so Taxol was used as negative control.

U2OS = test: Viability IC50, U2OS cells; assay type: cell-based; conditions: Homo sapiens, Table 12a
[2] = test system: cytosolic hydroxyl radical in MDA-MB-231 cells; test: HKOH-1r hydroxyl radical detection in MDA-MB-231 cells; assay type: cell-based; conditions: about 5.5 h after addition
Experimental: FIG. 10 is a bar graph showing the relative mean fluorescence intensities of cells with HKOH-1r measured from the confocal images of MDA-MB-231 cells after treatment with compounds 48 and 37b, respectively. Scale bars represent 50 μm. Data are mean±s.e.m., n=20 cells for HKOH-1. Statistical significance was determined as ***P≤0.01 by Student's t test.
Reactive oxygen species is associated with the event of ferroptotic cell death. Oxidative stress induced by 48 and 37b can be indicated by the fluorogenic probe, HKOH-1r, that emits at 520 nm upon oxidation by cytosolic hydroxyl radical. By using HKOH-1r, it is possible to specify the type of ROS that tetraoxanes can produce in MDA-MB-231 cells.
Confocal images of MDA-MB-231 cells after tetraoxane treatment were captured and the relative mean fluorescence intensities of cells with HKOH-1r were quantified (FIG. 10). […] This phenomenon is consistent with one of the features of ferroptosis.

Hela cells = test: MTT viability assay, Hela cells; assay type: cell-based, human; conditions: Homo sapiens, HeLa, 48 h incubation, mean, n = 3, read-out: IC50 against Hela cells
Experimental: (§1) The anticancer activities of the exemplary compounds listed in Example 1 were tested against human cervix Hela cells, mammary breast cancer MDA-MB-231 cells, human hepatocellular HepG2 cells, human colorectal HCT116 cells, mammary ductal T47D cells, non-cancerous NIH3T3 cells, dog's kidney MDCK cells, and mouse brain bEnd.3 cells, respectively.

MDCK cells = test: MTT viability assay, MDCK cells; assay type: cell-based, dog; conditions: Canis lupus familiaris, MDCK, 48 h incubation, mean, n = 3, read-out: IC50 against MDCK cells
Experimental: as §1

[3] = test system: lipid ROS in MDA-MB-231 cells; test: C11-BODIPY lipid ROS detection in MDA-MB-231 cells; assay type: cell-based; conditions: 48 5 μM, 37b 1 μM, RSL3 0.5 μM; 6 h incubation
Experimental: FIG. 11 is a bar graph showing the detection of lipid ROS with compound 48 (5 μM), compound 37b (1 μM), or RSL3 (0.5 μM) by BODIPY 581/591 C11 after 6 h incubation in MDA-MB-231 cells. **P≤0.01 versus DMSO group. Data are plotted as the mean±SD, n=3 biologically independent samples. All P values were determined using two-tailed Student's t-test.
Since lipid peroxidation is the evidence about ferroptosis, C11-BODIPY probe is used to validate the lipid ROS generated by tetraoxanes. It is a ratiometric membrane-targeted probe which changes the emission from 590 nm to 510 nm upon the detection of lipid ROS. Here, MDA-MB-231 cells were treated with 48, 37b and RSL3, respectively. The lipid ROS levels were quantified by flow cytometry. Untreated group gave weak signal in FL1 channel (FIG. 11).

HEYA8 CSCs = test: CellTiter-Glo viability, HeyA8 cancer stem cells (spheres); assay type: cell-based; conditions: for IC50: HEY A8, cancer stem cell spheres, CellTiter-Glo, 48 hrs, n = 3, read-out: IC50 HeyA8sp (HEYA8 CSCs); for cell viability of ovarian cancer cells and cancer stem cells (FIG. 3C, words): both ovarian cancer cells and CSCs
MDA-MB-231 cells = test: Ferroptosis inhibitor rescue (Fer-1, liproxstatin-1) in MDA-MB-231 cells; assay type: cell-based; conditions: 24 h; for effect of Fer-1 on MDA-MB-231 cell death: Fer-1 50 μM
Experimental: FIG. 8A is a bar graph showing the effect of Fer-1 (50 μM) on MDA-MB-231 cells treated with compounds 37b, 37a, and 30b, respectively, at the indicated concentrations for 24 h. […], **P≤0.01, ***P≤0.001 versus non-pretreated cells, N.S., no statistically significant change. Data represent mean±SD, n=3 biologically independent samples. All P values were determined using two-tailed Student's t-test.
FIG. 8B is a bar graph showing the effect of Fer-1 (50 μM) on MDA-MB-231 cells treated with compounds 6b, 48, 30a, and 37f, respectively, at the indicated concentrations for 24 h. *P≤0.01, **P≤0.002, ***P≤0.001 versus non-pretreated cells. Data represent mean±SD, n=3 biologically independent samples. FIG. 8C is a bar graph showing the effect of Fer-1 and DFO on MDA-MB-231 cells treated with compounds 56 and 53, respectively, at the indicated concentrations for 24 h. *P≤0.01, **P≤0.002, ***P≤0.001 versus non-pretreated cells. All P values were determined using two-tailed Student's t-test.
FIG. 9 is a bar graph showing the effect of liproxstatin ([…]) on MDA-MB-231 cells treated with compounds 48 and 37b, respectively, at the indicated concentrations for 24 h. **P≤0.01 versus non-pretreated cells. Data represent mean±SD, n=3 biologically independent samples. All P values were determined using two-tailed Student's t-test.
Fer-1 was used to investigate the cell death pathway induced by the compounds described herein. Liproxstatin-1 was used to further confirm whether 48 and 37b triggered off ferroptosis in MDA-MB-231 cells.

| Compound | IC50 (NIH3T3) [µM] | tumor growth compared with vehicle control ([1]; 5 mg/kg and 10 mg/kg, HEYA8 CSC xenograft, 25 days) | tolerability of regimens in tested animals [1] | abnormal behavior or weight loss during treatment period [1] | IC50 (U2OS) [µM] | hydroxyl radical (HKOH-1r fluorescence) [2] | IC50 (Hela cells) [µM] | IC50 (MDCK cells) [µM] | lipid ROS (BODIPY 581/591 C11, FL1, flow cytometry) [3] | IC50 (HEYA8 CSCs) [µM] | cell viability of ovarian cancer cells and cancer stem cells (FIG. 3C, words) (HEYA8 CSCs) | effect of liproxstatin-1 pretreatment on MDA-MB-231 cell death (MDA-MB-231 cells) | effect of Fer-1 on MDA-MB-231 cell death (MDA-MB-231 cells) | tumor size ([1]; 10 mg/kg, HEYA8 CSC xenograft, 25 days) | fold more cytotoxic to HEYA8 CSCs than non-cancerous cells (HEYA8 CSCs) |
| --- | --- | --- | --- | --- | --- | --- | --- | --- | --- | --- | --- | --- | --- | --- | --- |
| CC(C)(C)C1CCC2(CC1)OOC1(CCC(OC(=O)NCCC[P+](c3ccccc3)(c3ccccc3)c3ccccc3)CC1)OO2.[Br-] (stereo not drawn) [Compound 37b, (3-((((12-(tert-butyl)-7,8,15,16-tetraoxadispiro[5.2.59.26]hexadecan-3-yl)oxy)carbonyl)amino)propyl)triphenylphosphonium bromide] | 4.6 ± 1.9 | effective in inhibiting tumor growth | well-tolerated | no abnormal behavior or weight loss | 3.4 ± 0.2 | significant amount of hydroxyl radical was observed | 1.6 | 9.5 | lipid ROS was generated | 1.1 ± 0.4 | could diminish the cell viability | prevented the cell death | subverted MDA-MB-231 cell death |  |  |
| CC(C)(C)C1CCC2(CC1)OOC1(CCC(OC(=O)NCCC[N+](C)(Cc3ccccc3)Cc3ccccc3)CC1)OO2.[I-] (stereo not drawn) [Compound 48, N,N-dibenzyl-3-((((12-(tert-butyl)-7,8,15,16-tetraoxadispiro[5.2.59.26]hexadecan-3-yl)oxy)carbonyl)amino)-N-methylpropan-1-aminium iodide] | 29 ± 5.7 |  | well-tolerated | no abnormal behavior or weight loss | 4.4 ± 0.6 | significant amount of hydroxyl radical was observed | 6.3 | 28.2 | lipid ROS was generated | 1.2 ± 0.5 | could diminish the cell viability | prevented the cell death | subverted MDA-MB-231 cell death | reduced the tumor size | at least 24 fold |
